# Laboratory results from US9468654B1, “Drug delivery compositions and methods” (WILKES UNIVERSITY, priority 2014, dated 2016).
# Format: physicochemical
# Excerpt: Referring to FIGS. 1A and B, differential scanning calorimetry thermographs compare the melting of (1A) lysine and (1B) a lysine-based drug delivery composition, according to this example. […] These observations, further confirmed with Raman spectroscopy and x-ray powder diffraction, are consistent with the nanosizing effect on melting point and thermal stability of crystals due to the increased surface to volume ratio.
structure (smiles),measurement,value
NCCCC[C@H](N)C(=O)O [lysine],onset decomposition temperature (thermal stability),about 257 °C
